The record followed here is ChEMBL document CHEMBL3576844, “Melanin-concentrating hormone receptor 1 antagonists for treatment of obesity” (ACS Med Chem Lett, 2015).

Data set [1] has as its target Melanin-concentrating hormone receptor 1 (Homo sapiens) (UniProt Q99705). The data set is described as follows: Displacement of [125I]-MCH (4 to 19) from human MCH1 receptor expressed in CHO cell membranes at 0.1 uM after 1 hr by liquid scintillation counting analysis relative to control. For orientation: Loss of bound radioactivity is the signal in a displacement assay; it reports binding, not function.

The target is the same in data set [2]. Kind of data set: Antagonist activity at human MCH1 receptor expressed in CHO cell membranes assessed as inhibition of MCH (4 to 19)-stimulated calcium mobilization at 0.1 uM measured every 2 secs by fluorometric analysis relative to control. The data set is classed as functional, cell-based. In general terms: A change in cytosolic calcium serves as a functional read-out for many receptors and channels.

For a further data set, the target named is hERG (KCNH2) (Homo sapiens, UniProt Q12809). Kind of data set: Inhibition of human ERG expressed in CHO cells at 10 uM after 5 mins by IonWorks assay relative to control. As to conditions: CHO cells expressing human ERG.
Chain of hERG (KCNH2) (Q12809 whole entry): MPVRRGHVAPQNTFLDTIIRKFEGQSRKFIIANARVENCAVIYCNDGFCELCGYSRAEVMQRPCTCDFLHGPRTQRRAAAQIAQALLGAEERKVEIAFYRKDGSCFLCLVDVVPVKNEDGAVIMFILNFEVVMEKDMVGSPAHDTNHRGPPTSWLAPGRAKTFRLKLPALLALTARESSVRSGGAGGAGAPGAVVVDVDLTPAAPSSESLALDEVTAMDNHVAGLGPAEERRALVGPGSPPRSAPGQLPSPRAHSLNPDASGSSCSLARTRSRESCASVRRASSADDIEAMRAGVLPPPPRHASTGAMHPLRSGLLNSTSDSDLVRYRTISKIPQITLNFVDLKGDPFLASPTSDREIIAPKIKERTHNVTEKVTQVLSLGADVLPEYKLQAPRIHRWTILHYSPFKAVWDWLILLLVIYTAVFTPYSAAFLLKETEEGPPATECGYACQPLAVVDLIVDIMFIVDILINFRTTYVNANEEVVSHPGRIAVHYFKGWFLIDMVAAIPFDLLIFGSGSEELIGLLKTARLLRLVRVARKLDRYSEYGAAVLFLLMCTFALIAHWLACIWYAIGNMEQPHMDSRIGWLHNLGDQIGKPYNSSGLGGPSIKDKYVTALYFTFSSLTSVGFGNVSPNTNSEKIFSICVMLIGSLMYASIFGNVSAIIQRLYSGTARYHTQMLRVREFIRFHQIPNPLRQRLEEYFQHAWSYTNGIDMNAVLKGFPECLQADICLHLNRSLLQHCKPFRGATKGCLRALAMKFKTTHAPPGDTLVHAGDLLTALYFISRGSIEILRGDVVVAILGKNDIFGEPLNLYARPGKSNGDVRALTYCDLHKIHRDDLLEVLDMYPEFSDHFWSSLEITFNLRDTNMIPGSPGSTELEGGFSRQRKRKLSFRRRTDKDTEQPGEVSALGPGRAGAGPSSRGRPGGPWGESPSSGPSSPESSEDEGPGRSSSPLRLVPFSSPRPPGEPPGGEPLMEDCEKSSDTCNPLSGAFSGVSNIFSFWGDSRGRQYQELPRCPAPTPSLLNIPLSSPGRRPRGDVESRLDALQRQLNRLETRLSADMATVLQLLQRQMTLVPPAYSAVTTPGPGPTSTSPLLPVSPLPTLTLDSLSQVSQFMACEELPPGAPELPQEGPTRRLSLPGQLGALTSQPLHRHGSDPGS

Chain of Melanin-concentrating hormone receptor 1 (Homo sapiens) (Q99705 whole entry): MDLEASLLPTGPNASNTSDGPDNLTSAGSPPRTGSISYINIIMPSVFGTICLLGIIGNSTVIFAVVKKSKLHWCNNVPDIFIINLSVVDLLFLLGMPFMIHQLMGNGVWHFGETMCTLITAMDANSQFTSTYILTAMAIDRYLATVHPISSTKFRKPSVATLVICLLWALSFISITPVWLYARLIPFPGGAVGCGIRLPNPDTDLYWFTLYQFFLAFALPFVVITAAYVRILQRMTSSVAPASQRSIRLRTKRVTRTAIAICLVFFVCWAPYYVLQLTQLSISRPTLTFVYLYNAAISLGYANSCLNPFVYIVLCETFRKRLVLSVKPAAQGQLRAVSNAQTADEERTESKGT

For `Cc1c2cc(-n3ccc(OCc4csc(C(F)(F)F)c4)cc3=O)ccc2nn1C1CC1`, the inhibition (as a rule, how much of the control response was suppressed) came to 77% in data set [1] and 55% in data set [2].

In the case of `Cc1c2cc(-n3ccc(OCc4ccc(F)cc4)cc3=O)ccc2nn1C1CC1`, the inhibition in data set [1] is 72%; in data set [2] it was 70%.

Turning to `Cc1c2cc(-n3ccc(OCc4csc(C(F)(F)F)n4)cc3=O)ccc2nn1C1CC1`, the inhibition was 50% in data set [1] and 78% in data set [2].

On to `Cc1c2cc(-n3ccc(OCc4ccc(Cl)cc4)cc3=O)ccc2nn1C`, for which the inhibition in data set [1] was determined as 72%; in data set [2], 83%. For the same compound, on hERG (KCNH2), the inhibition at 5 min, 10 µM came out at 22.1%.
